Laboratory results from article PMC5829162, “Rational Design, Synthesis and Biological Evaluation of Pyrimidine-4,6-diamine derivatives as Type-II inhibitors of FLT3 Selective Against c-KIT” (Scientific Reports, 2018).
Values joined by “and” are separate entries in the source; they are usually repeats but may differ in a detail not shown here. Identical values can stand only once.

What was measured:
[1] = biological target: T1, FLT3 kinase (Homo sapiens, UniProt P36888); assay: Biochemical enzyme inhibition assay (microfluidics, Caliper EZ Reader II), FLT3; settings: for IC50: in vitro kinase assay, 60 min pre-incubation, ATP 190 µM, three independent experiments, read-out: FLT3 IC50 (nM) ± SD; for LE: ligand efficiency for FLT3 inhibition
T1 construct: purchased Invitrogen
T1 sequence (P36888 27-993): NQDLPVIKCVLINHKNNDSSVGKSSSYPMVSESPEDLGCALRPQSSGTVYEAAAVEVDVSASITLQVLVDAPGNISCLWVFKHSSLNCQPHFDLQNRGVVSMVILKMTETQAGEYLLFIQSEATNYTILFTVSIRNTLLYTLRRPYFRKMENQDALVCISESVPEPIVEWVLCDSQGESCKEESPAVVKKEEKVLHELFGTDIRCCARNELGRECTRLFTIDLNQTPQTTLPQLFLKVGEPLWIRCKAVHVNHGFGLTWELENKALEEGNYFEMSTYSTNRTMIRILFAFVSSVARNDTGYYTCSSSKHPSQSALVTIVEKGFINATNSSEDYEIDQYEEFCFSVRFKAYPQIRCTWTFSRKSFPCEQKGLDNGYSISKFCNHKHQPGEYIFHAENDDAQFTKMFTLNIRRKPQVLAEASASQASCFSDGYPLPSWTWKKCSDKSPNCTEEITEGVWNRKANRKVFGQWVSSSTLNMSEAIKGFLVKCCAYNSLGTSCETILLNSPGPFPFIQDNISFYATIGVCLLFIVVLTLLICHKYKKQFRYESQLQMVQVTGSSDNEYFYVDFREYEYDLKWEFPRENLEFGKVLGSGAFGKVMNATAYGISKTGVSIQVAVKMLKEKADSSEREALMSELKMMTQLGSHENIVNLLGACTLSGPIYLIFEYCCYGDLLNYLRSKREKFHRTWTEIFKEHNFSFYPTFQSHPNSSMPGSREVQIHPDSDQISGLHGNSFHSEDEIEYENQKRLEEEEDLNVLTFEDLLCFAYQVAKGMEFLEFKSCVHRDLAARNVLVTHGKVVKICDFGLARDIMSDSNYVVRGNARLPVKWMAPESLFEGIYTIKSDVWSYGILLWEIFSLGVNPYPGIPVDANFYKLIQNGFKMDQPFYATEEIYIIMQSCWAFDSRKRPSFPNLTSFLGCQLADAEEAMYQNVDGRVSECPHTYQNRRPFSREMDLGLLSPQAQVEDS
Description: Kinase activity was measured in a microfluidics assay that monitors the separation of a phosphorylated product from substrate[31],[32]. […] After, 1 μL was transferred into a 384-well polypropylene assay plate (Greiner, Frickenhausen, Germany). The FLT3 enzyme (Invitrogen™, Grand Island, USA) was diluted in kinase buffer to a concentration of 2 nM and 5 µL of the enzyme mixture was transferred to the assay plate. The inhibitors/FLT3 enzyme were incubated for 60 minutes with minor shaking. […] For positive control, no inhibitor was added. For negative control, no enzyme was added. For running control, quizartinib was utilized. The plate was run until 10–20% conversion based on the positive control wells. The following separation conditions were utilized: upstream voltage −500V; downstream voltage, −1900V; chip pressure −0.8. Percent inhibition was measured for each well comparing starting peptide to phosphorylated product peaks relative to the baseline. Dose response curves, spanning the IC50 dose, were generated in GraphPad Prisim 6 and fit to an exponential one-phase decay line and IC50 values were obtained from the half-life value of the curve. IC50 values were generated in duplicate and error was calculated from the standard deviation between values.
S10. Biochemical Inhibition Assay:1,2 Kinase activity was measured in a microfluidics assay that monitors the separation of a phosphorylated product from substrate. The assay was run using a 12-sipper chip on a Caliper EZ Reader II (PerkinElmer®, Walthman, USA) with separation […]
Walthman, USA]). In 96-well polypropylene plates (Greiner, Frickenhausen, Germany) […]
After, 1 μL was transferred into a 384-well polypropylene assay plate (Greiner, Frickenhausen, Germany). The FLT3 enzyme (Invitrogen™, Grand Island, USA) was diluted in kinase buffer to a concentration of 2 nM and 5 µL of the enzyme mixture was transferred to the assay plate. The inhibitors/FLT3 enzyme were incubated for 60 minutes with minor shaking. A substrate mix was prepared containing ATP (Ambresco®, Solon, USA) and […]
USA) dissolved in kinase buffer, and 5 µL of the substrate mix was added to the assay plate.
For positive control, no inhibitor was added. For negative control, no enzyme was added. For running control, quizartinib was utilized. The plate was run until 10-20% conversion based on the positive control wells. The following separation conditions were utilized: upstream voltage -500V; downstream voltage, -1900V; chip pressure - 0.8. Percent inhibition was measured for each well comparing starting peptide to phosphorylated product peaks relative to the baseline. Dose response curves, spanning the IC50 dose, were generated in GraphPad Prisim 6 and fit to an exponential one-phase decay line and IC50 values were obtained from the half-life value of the curve. IC50 values were generated in duplicate and error was calculated from the standard deviation between values. […]

| Compound | melting point [°C] | IC50 [1] | LE [1] | fold less active than 13a on FLT3 ([1]; enzymatic FLT3 IC50 compared with 13a) [fold] |
| --- | --- | --- | --- | --- |
| CS(=O)(=O)c1ccc(Nc2cc(Oc3ccc(CC(=O)Nc4cccc(F)c4)cc3)ncn2)cc1 [13aa, 2-(4-(6-(4-(Methylsulfonyl)phenylamino)pyrimidin-4-yloxy)phenyl)-N-(3-fluorophenyl)acetamide] | 228 to 230 | 7878 ± 29 nM | 0.20 | – |
| O=C(Cc1ccc(Nc2cc(NCCCN3CCCC3)ncn2)cc1)Nc1cccc(C(F)(F)F)c1 [13ab, 2-(4-(6-(3-(Pyrrolidin-1-yl)propylamino)pyrimidin-4-ylamino)phenyl)-N-(3-(trifluoromethyl)phenyl)acetamide] | – | 9170 ± 236 nM | 0.19 | – |
| CS(=O)(=O)c1ccc(Nc2cc(Nc3ccc(CC(=O)Nc4cccc(F)c4)cc3)ncn2)cc1 [13ac, 2-(4-(6-(4-(Methylsulfonyl)phenylamino)pyrimidin-4-ylamino)phenyl)-N-(3-fluorophenyl)acetamide] | – | 11710 ± 106 nM | 0.19 | – |
| CNc1cc(Oc2ccc(CC(=O)Nc3ccc(F)cc3)cc2)ncn1 [13ad, 2-(4-(6-(Methylamino)pyrimidin-4-yloxy)phenyl)-N-(4-fluorophenyl)acetamide] | 124 to 126 | 12800 ± 834 nM | 0.26 | – |
| CS(=O)(=O)c1ccc(Nc2cc(Nc3ccc(CC(=O)NC4CC4)cc3)ncn2)cc1 [13ae, 2-(4-(6-(4-(Methylsulfonyl)phenylamino)pyrimidin-4-ylamino)phenyl)-N-cyclopropylacetamide] | 110 to 112 | 5550 ± 169 nM | 0.23 | – |
| O=C(Cc1ccc(Nc2cc(Nc3cccc(C(F)(F)F)c3)ncn2)cc1)NC1CC1 [13af, 2-(4-(6-(3-(Trifluoromethyl)phenylamino)pyrimidin-4-ylamino)phenyl)-N-cyclopropylacetamide] | – | 8060 ± 274 nM | 0.23 | – |
| CN1CCN(c2cc(Nc3ccc(CC(=O)NC4CC4)cc3)ncn2)CC1 [13ah, 2-(4-(6-(4-Methylpiperazin-1-yl)pyrimidin-4-ylamino)phenyl)-N-cyclopropyl acetamide] | – | 13560 ± 102 nM | 0.25 | – |
| O=C(Cc1ccc(Nc2cc(N3CCOCC3)ncn2)cc1)NC1CC1 [13ai, 2-(4-(6-Morpholinopyrimidin-4-ylamino)phenyl)-N-cyclopropylacetamide] | 110 to 112 | 15100 ± 168 nM | 0.25 | – |
| CCCCNc1cc(Oc2ccc(CC(=O)Nc3nc(C(C)(C)C)cs3)cc2)ncn1 [13aj, 2-(4-(6-(Butylamino)pyrimidin-4-yloxy)phenyl)-N-(4-tert-butylthiazol-2-yl)acetamide] | 102 to 104 | 7580 ± 132 nM | 0.23 | – |
| COc1ccc(CNC(=O)Cc2ccc(Oc3cc(NC4CCN(Cc5ccccc5)CC4)ncn3)cc2)c(OC)c1 [13ak, N-(2,4-Dimethoxybenzyl)-2-(4-(6-(1-benzylpiperidin-4-ylamino)pyrimidin-4-yloxy)phenyl)acetamide] | 102 to 104 | 13600 ± 494 nM | 0.16 | – |
| Cn1nc(C(C)(C)C)cc1NC(=O)Cc1ccc(Nc2cc(NCCCN3CCCCC3)ncn2)cc1 [13c, 2-(4-(6-(3-(Piperidin-1-yl)propylamino)pyrimidin-4-ylamino)phenyl)-N-(3-tert-butyl-1-methyl-1H-pyrazol-5-yl)acetamide] | – | 129.3 ± 0.9 nM | 0.26 | – |
| Cn1nc(C(C)(C)C)cc1NC(=O)Cc1ccc(Oc2cc(Nc3ccc(S(C)(=O)=O)cc3)ncn2)cc1 [13e, 2-(4-(6-(4-(Methylsulfonyl)phenylamino)pyrimidin-4-yloxy)phenyl)-N-(3-tert-butyl-1-methyl-1H-pyrazol-5-yl)acetamide] | – | 268 ± 25 nM | 0.24 | – |
| Cn1nc(C(C)(C)C)cc1NC(=O)Cc1ccc(Oc2cc(Nc3cccc(C(F)(F)F)c3)ncn2)cc1 [13f, 2-(4-(6-(3-(Trifluoromethyl)phenylamino)pyrimidin-4-yloxy)phenyl)-N-(3-tert-butyl-1-methyl-1H-pyrazol-5-yl)acetamide] | 140 to 142 | 961 ± 33.7 nM | 0.22 | – |
| CC(C)(C)c1cc(NC(=O)Cc2ccc(Nc3cc(Nc4ccc(S(C)(=O)=O)cc4)ncn3)cc2)n(-c2ccc(F)cc2)n1 [13g, 2-(4-(6-(4-(Methylsulfonyl)phenylamino)pyrimidin-4-ylamino)phenyl)-N-(3-tert-butyl-1-(4-fluorophenyl)-1H-pyrazol-5-yl)acetamide] | 168 to 170 | 3230 ± 556 nM | 0.17 | – |
| Cc1ccc(-n2nc(C(C)(C)C)cc2NC(=O)Cc2ccc(Nc3cc(Nc4ccc(S(C)(=O)=O)cc4)ncn3)cc2)cc1 [13h, 2-(4-(6-(4-(Methylsulfonyl)phenylamino)pyrimidin-4-ylamino)phenyl)-N-(3-tert-butyl-1-p-tolyl-1H-pyrazol-5-yl)acetamide] | 155 to 157 | 4840 ± 170 nM | 0.16 | – |
| Cn1nc(C(C)(C)C)cc1NC(=O)Cc1ccc(Nc2cc(N3CCOCC3)ncn2)cc1 [13i, 2-(4-(6-Morpholinopyrimidin-4-ylamino)phenyl)-N-(3-tert-butyl-1-methyl-1H-pyrazol-5-yl)acetamide] | – | 428 ± 99 nM | 0.27 | – |
| CN1CCN(c2cc(Nc3ccc(CC(=O)Nc4cc(C(C)(C)C)nn4-c4ccc(Br)cc4)cc3)ncn2)CC1 [13j, 2-(4-(6-(4-Methylpiperazin-1-yl)pyrimidin-4-ylamino)phenyl)-N-(3-tert-butyl-1-(4-bromophenyl)-1H-pyrazol-5-yl)acetamide] | 110 to 112 | 6020 ± 122 nM | 0.18 | – |
| CC(C)(C)c1cc(NC(=O)Cc2ccc(Oc3cc(Nc4cccc(C(F)(F)F)c4)ncn3)cc2)no1 [13l, 2-(4-(6-(3-(Trifluoromethyl)phenylamino)pyrimidin-4-yloxy)phenyl)-N-(5-tert-butylisoxazol-3-yl)acetamide] | 120 to 122 | 567 nM and 568 nM | 0.23 | – |
| O=C(Cc1ccc(Nc2cc(NCCCN3CCCCC3)ncn2)cc1)Nc1ccc(OC(F)(F)F)cc1 [13y, 2-(4-(6-(3-(Piperidin-1-yl)propylamino)pyrimidin-4-ylamino)phenyl)-N-(4-(trifluoromethoxy)phenyl)acetamide] | – | 6460 ± 251 nM | 0.19 | – |
| Cn1nc(C(C)(C)C)cc1NC(=O)Cc1ccc(Nc2cccc(Nc3ccc(S(C)(=O)=O)cc3)n2)cc1 [compound 18, 2-(4-(6-(4-(Methylsulfonyl)phenylamino)pyridin-2-ylamino)phenyl)-N-(3-tert-butyl-1-methyl-1H-pyrazol-5-yl)acetamide] | – | 5720 nM | – | > 100 |
| N-(4-Fluorobenzyl)-2-(4-(6-(3-(pyrrolidin-1-yl)propylamino)pyrimidin-4-yloxy)phenyl)acetamide [13w] | – | 4560 ± 330 nM | 0.21 | – |
